These results are taken from US11497766B2, “Compositions and methods for treating or preventing diseases associated with oxidative stress” (CXL OPHTHALMICS, LLC, priority 2012, dated 2022).

The assay has as its system eyes. As to the kind of experiment: Corneal collagen cross-linking with riboflavin and sodium iodide; post-operative corneal haze. Conditions: corneal collagen cross-linking utilizing 0.5% riboflavin and 0.015% (1 mmol) sodium iodide; over 200 eyes; compared to historical cross-linking procedures performed without sodium iodide. In kind it is in vivo. The procedure: Corneal collagen cross-linking utilizing 0.5% riboflavin and 0.015% (1 mmol) sodium iodide was performed in over 200 eyes.

Consider `[I-].[Na+]` [sodium iodide], for which the Post-operative corneal haze result is listed as “minimal”.
